This test relates to ATXN3-HiBiT protein. Briefly: ATXN3 Total Protein Assay (Kelly-ATXN3-HiBiT luminescence). It counts as cell-based. Conditions: Kelly-ATXN3-HiBiT cells, 48 h after addition of compound. The text has this:
Example 36: ATXN3 Total Protein Assay
To monitor ATXN3 protein levels by luminescence, a Kelly-ATXN3-HiBiT cell line with homozygous knock-in of HiBiT at the C-terminus of the endogenous ATXN3 gene was used (knock-in of the HiBiT-tag coding sequence SEQ ID NO. 14: 5′[…]3′ into exon 11 of ATXN3-position 1114 of ATXN3 RefSeq NM_004993.6). Manipulations of the Kelly-ATXN3-HiBiT cell line that result in downregulation of the ATXN3-HiBiT protein (through modulation of ATXN3-HiBiT pre-mRNA splicing) can be followed by monitoring the luminescence signal of the HiBiT tag using the Nano Glo HiBiT Lytic Detection System (Promega, #N3050). Kelly-ATXN3-HiBiT cells were maintained in RPMI 1640 w/Glutamax (Gibco, #61870010), 10% FBS (Sigma Aldrich, #F8687), 1% Penicillin/Streptomycin (Gibco, #15140-122) at 37° C., 5% CO2. To assess HiBiT-luminescence signal upon compound treatment, 2000 Kelly-ATXN3-HiBiT cells were seeded per well in 384 plate format. Compounds were added 24 h after seeding. ATXN3-HiBiT-luminescence signal was read out 48 h after addition of the compound using the Nano Glo HiBiT Lytic Detection System (Promega, #N3050) according to the manufacturer's instructions. To control for cell viability, an identically prepared sister plate was read out with the CellTiter-Glo® 2.0 Assay (Promega, #G9243) according to the manufacturer's instructions. Fold changes of ATXN3-HiBiT-luminescence and of CellTiter-Glo viability signals were calculated relative to a DMSO control condition.
For orientation: EC50 means the concentration giving half of the maximal effect. The low end stands for a more potent agent, the high end for a less potent agent. Turning to `[2H]C([2H])([2H])[C@H](N)Cc1oc2c(NCc3cccs3)cc(Cl)nc2c1C#C` [Compound 270, 2-[(S)-2-amino(3,3,3-^2H3)propyl]-5-chloro-3-ethynyl-7-thenylamino-1-oxa-4-azaindene], the EC50 lay within 0.01 to 100 nM.
Compound `N[C@H](Cc1oc2c(NCc3cccs3)cc(Cl)nc2c1Br)CC1(F)CC1` [Compound 87, 2-[(R)-2-amino-3-(1-fluorocyclopropyl)propyl]-3-bromo-5-chloro-7-thenylamino-1-oxa-4-azaindene] registered an EC50 of 101 to 500 nM.
The compound `[2H]C([2H])([2H])OC[C@]([2H])(N)Cc1oc2c(NCc3cccs3)cc(Cl)nc2c1C#C` [Compound 286, 2-[(R)-2-amino-3-(^2H3)methoxy(2-2H)propyl]-5-chloro-3-ethynyl-7-thenylamino-1-oxa-4-azaindene] registered a 50% effective concentration (EC50) of 0.01 to 100 nM.
Regarding `[2H]C([2H])(c1oc2c(NCc3cccs3)cc(Cl)nc2c1Cl)[C@@H](N)CF` [Compound 336, 2-[(R)-2-amino-3-fluoro(1,1-^2H2)propyl]-3,5-dichloro-7-thenylamino-1-oxa-4-azaindene], the EC50 was in the range of 0.01 to 100 nM.
As to `[2H]C([2H])([2H])C(N)Cc1oc2c(NCc3cccs3)cc(Cl)nc2c1Br` (stereo not drawn) [Compound 230, 2-[2-amino(3,3,3-^2H3)propyl]-3-bromo-5-chloro-7-thenylamino-1-oxa-4-azaindene], the half-maximal effective concentration (EC50) was in the range of 0.01 to 100 nM.
`N[C@@H](Cc1oc2c(NCc3cccs3)cc(Cl)nc2c1Br)CC1(F)CC1` [Compound 86, 2-[(S)-2-amino-3-(1-fluorocyclopropyl)propyl]-3-bromo-5-chloro-7-thenylamino-1-oxa-4-azaindene] came in with an EC50 of 501 to 5000 nM.
With `[2H]C([2H])([2H])OC[C@H](N)Cc1oc2c(NC([2H])([2H])c3cccs3)cc(Cl)nc2c1Br` [Compound 249, 2-[(R)-2-amino-3-(^2H3)methoxypropyl]-3-bromo-5-chloro-7-{[(2-thienyl)(^2H2)methyl]amino}-1-oxa-4-azaindene], the half-maximal effective concentration (EC50) was 0.01 to 100 nM.
In the case of `O=C(O)c1oc2c(NCc3cccs3)cc(Cl)nc2c1Br` [Compound 347, 3-bromo-5-chloro-7-thenylamino-1-oxa-4-aza-2-indenecarboxylic acid] it was 10000 to 40000 nM.
In the case of `C#Cc1c(C[C@@H](N)CO)oc2c(NCc3cccs3)cc(Cl)nc12` [Compound 248, (R)-2-amino-3-(5-chloro-3-ethynyl-7-thenylamino-1-oxa-4-aza-2-indenyl)-1-propanol], the EC50 fell in the range of 0.01 to 100 nM.
The compound `[2H]C([2H])([2H])OC[C@H](N)Cc1oc2c(NC([2H])([2H])c3cccs3)cc(Cl)nc2c1C#C` [Compound 250, 2-[(R)-2-amino-3-(^2H3)methoxypropyl]-5-chloro-3-ethynyl-7-{[(2-thienyl)(^2H2)methyl]amino}-1-oxa-4-azaindene] displayed an EC50 of 0.01 to 100 nM.
For the compound `[2H]C([2H])([2H])OCC[C@H](N)Cc1oc2c(NCc3cccs3)cc(Cl)nc2c1Br` [Compound 267, 2-[(S)-2-amino-4-(^2H3)methoxybutyl]-3-bromo-5-chloro-7-thenylamino-1-oxa-4-azaindene], the EC50 lay in the range of 101 to 500 nM.
`[2H]C([2H])([2H])OC[C@]([2H])(N)Cc1oc2c(NCc3cccs3)cc(Cl)nc2c1Br` [Compound 284, 2-[(R)-2-amino-3-(^2H3)methoxy(2-2H)propyl]-3-bromo-5-chloro-7-thenylamino-1-oxa-4-azaindene]: the EC50 is 0.01 to 100 nM.
Consider `N[C@H](Cc1oc2c(NCc3cccs3)cc(Cl)nc2c1Br)C[C@H]1CC1(F)F` [Compound 184, 2-{(S)-3-[(S)-2,2-difluorocyclopropyl]-2-aminopropyl}-3-bromo-5-chloro-7-thenylamino-1-oxa-4-azaindene], for which the EC50 is 101 to 500 nM.
To `COc1cccc(CNc2cc(Cl)nc3c(Br)c(C[C@H](C)N)oc23)n1` [Compound 348, 2-[(S)-2-aminopropyl]-3-bromo-5-chloro-7-{[(6-methoxy-2-pyridyl)methyl]amino}-1-oxa-4-azaindene] belongs 10000 to 40000 nM; to `N#CC[C@H](N)Cc1oc2c(NCc3ccco3)cc(Cl)nc2c1Br` [Compound 235, (S)-3-amino-4-[3-bromo-5-chloro-7-(furfurylamino)-1-oxa-4-aza-2-indenyl]butyronitrile], 501 to 5000 nM; to `C[C@H](N)Cc1oc2c(NCc3ccc(C#N)cc3)cc(Cl)nc2c1Br` [Compound 339, p-({2-[(S)-2-aminopropyl]-3-bromo-5-chloro-1-oxa-4-aza-7-indenylamino}methyl)benzonitrile], 10000 to 40000 nM.
In turn, `[2H]C([2H])([2H])C(N)Cc1oc2c(NCc3cccs3)cc(Cl)nc2c1C#C` (stereo not drawn) [Compound 269, 2-[2-amino(3,3,3-^2H3)propyl]-5-chloro-3-ethynyl-7-thenylamino-1-oxa-4-azaindene] displayed an EC50 of 0.01 to 100 nM.
As for `[2H][C@](N)(COC)Cc1oc2c(NCc3cccs3)cc(Cl)nc2c1C#C` [Compound 287, 2-[(R)-2-amino-3-methoxy(2-^2H)propyl]-5-chloro-3-ethynyl-7-thenylamino-1-oxa-4-azaindene], the EC50 lay in the range of 0.01 to 100 nM.
In the case of `[2H]C([2H])([2H])[C@@H](N)Cc1oc2c(NCc3cccs3)cc(Cl)nc2c1C#C` [Compound 271, 2-[(R)-2-amino(3,3,3-^2H3)propyl]-5-chloro-3-ethynyl-7-thenylamino-1-oxa-4-azaindene] it was 101 to 500 nM.
In turn, `C[C@H](N)Cc1oc2c(NCc3ccncc3F)cc(Cl)nc2c1Br` [Compound 342, 2-[(S)-2-aminopropyl]-3-bromo-5-chloro-7-{[(3-fluoro-4-pyridyl)methyl]amino}-1-oxa-4-azaindene] registered an EC50 of 101 to 500 nM.
`[2H]C([2H])([2H])OC([2H])([2H])[C@H](N)Cc1oc2c(NCc3cccs3)cc(Cl)nc2c1C#C` [Compound 301, 2-[(R)-2-amino-3-(^2H3)methoxy(3,3- ^2H2)propyl]-5-chloro-3-ethynyl-7-thenylamino-1-oxa-4-azaindene] registered a half-maximal effective concentration (EC50) of 0.01 to 100 nM.
The compound `[2H]C([2H])(OC)[C@H](N)Cc1oc2c(NCc3cccs3)cc(Cl)nc2c1C#C` [Compound 300, 2-[(R)-2-amino-3-methoxy(3,3- ^2H2)propyl]-5-chloro-3-ethynyl-7-thenylamino-1-oxa-4-azaindene] registered an EC50 of 0.01 to 100 nM.
`[2H]C([2H])(OC)[C@H](N)Cc1oc2c(NCc3cccs3)cc(Cl)nc2c1Br` [Compound 296, 2-[(R)-2-amino-3-methoxy(3,3- ^2H2)propyl]-3-bromo-5-chloro-7-thenylamino-1-oxa-4-azaindene] came in with an EC50 of 0.01 to 100 nM.
`Cc1c(C[C@H](N)CC2(F)CC2)oc2c(NCc3cccs3)cc(Cl)nc12` [Compound 69, 2-[(S)-2-amino-3-(1-fluorocyclopropyl)propyl]-5-chloro-3-methyl-7-thenylamino-1-oxa-4-azaindene] registered an EC50 of 0.01 to 100 nM.
As for `[2H][C@](N)(COC)Cc1oc2c(NCc3cccs3)cc(Cl)nc2c1Cl` [Compound 283, 2-[(R)-2-amino-3-methoxy(2-^2H)propyl]-3,5-dichloro-7-thenylamino-1-oxa-4-azaindene], the EC50 is 0.01 to 100 nM.
With `[2H]C([2H])(OC(F)F)[C@H](N)Cc1oc2c(NCc3cccs3)cc(Cl)nc2c1C#C` [Compound 302, 2-[(R)-2-amino-3-difluoromethoxy(3,3- ^2H2)propyl]-5-chloro-3-ethynyl-7-thenylamino-1-oxa-4-azaindene], the EC50 lay in the range of 0.01 to 100 nM.
Consider `[2H]C([2H])([2H])OC[C@H](N)Cc1oc2c(NCc3cccs3)cc(Cl)nc2c1Cl` [Compound 264, 2-[(R)-2-amino-3-(^2H3)methoxypropyl]-3,5-dichloro-7-thenylamino-1-oxa-4-azaindene], for which the EC50 was in the range of 0.01 to 100 nM.
To `[2H]C([2H])(c1oc2c(NCc3cccs3)cc(Cl)nc2c1C#C)[C@@H](N)COC` [Compound 330, 2-[(R)-2-amino-3-methoxy(1,1- ^2H2)propyl]-5-chloro-3-ethynyl-7-thenylamino-1-oxa-4-azaindene] belongs 0.01 to 100 nM; to `[2H]C([2H])([2H])OC[C@H](N)Cc1oc2c(NCc3cccs3)cc(Cl)nc2c1C#C` [Compound 233, 2-[(R)-2-amino-3-(2H3)methoxypropyl]-5-chloro-3-ethynyl-7-thenylamino-1-oxa-4-azaindene], 0.01 to 100 nM.
For the compound `COc1cc(CNc2cc(Cl)nc3c(Br)c(C[C@H](C)N)oc23)ccc1F` [Compound 343, 2-[(S)-2-aminopropyl]-3-bromo-5-chloro-7-{[(4-fluoro-3-methoxyphenyl)methyl]amino}-1-oxa-4-azaindene], the EC50 fell in the range of 501 to 5000 nM.
To `[2H]C([2H])(Nc1cc(Cl)nc2c(Br)c(C[C@]([2H])(C)N)oc12)c1cccs1` [Compound 234, 2-[(S)-2-amino(2-2H)propyl]-3-bromo-5-chloro-7-{[(2-thienyl)(^2H2)methyl]amino}-1-oxa-4-azaindene] belongs 0.01 to 100 nM.
Compound `CC(=O)NC[C@H](N)Cc1oc2c(NCc3cccs3)cc(Cl)nc2c1Br` [Compound 219] showed an EC50 of 0.01 to 100 nM.
`C[C@H](N)Cc1oc2c(NCc3ccccc3OC(F)(F)F)cc(Cl)nc2c1Br` [Compound 349, 2-[(S)-2-aminopropyl]-3-bromo-5-chloro-7-{[(o-trifluoromethoxyphenyl)methyl]amino}-1-oxa-4-azaindene] returned an EC50 of 10000 to 40000 nM.

Values taken from patent US20260001889A1, “COMPOSITIONS USEFUL FOR MODULATING SPLICING” (Skyhawk Therapeutics, Inc., priority 2022, published 2026).
